pIC50: −log10 of the molar value. Blank lines part the entries; values can stand above or below the molecule they belong to.
Test system: 755483-174-R-J1-PDC complex spheroid growth, percent test/control
Test: Anticancer human tumor 755483-174-R-J1-PDC patient-derived rhabdomyosarcoma cell line growth inhibition [Asc]
Conditions: for pIC50: curve of first compound; for viability, T/C: stronger effect = lower value
Method: Multicellular complex tumor spheroid response to apoptosis pathway targeting inhibitors Alrizomadlin, Pelcitoclax, and Dasminapant in combination with a variety of drugs and investigational agents in selected tumor cell lines
The MDM2 inhibitor alrizomadlin, the Bcl-2/Bcl-xL inhibitor pelcitoclax, and the IAPs inhibitor dasminapant were evaluated both individually and in combination with standard of care and investigational anticancer small molecules within a complex spheroid model of solid tumors. . Complex spheroids include a stromal component modeled by human endothelial cells (HUVEC) and fibroblasts modeled by human mesenchymal stem cells (MSCs). The concentration ranges selected for each drug and investigational agent were based upon clinically achievable concentrations if the clinical Cmax of the agent was known.
Compounds. The drugs and investigational agents: alrizomadlin (APG-115; NSC831270), pelcitoclax (APG-1252; NSC835773), dasminapant (APG-1387;NSC834197), TAK-243 (NSC785004), copanlisib (NSC809693), olaparib (NSC753686), talazoparib (NSC767125), cobimetinib (NSC 768068), eltanexor (KPT-8602, NSC 794443), abemaciclib (NSC 768073), sotorasib (NSC818433), adagrasib (NSC 831453), MRTX-1133 (NSC 836407), Iadademestat (ORY1001, NSC 806812), and RMC-4630 (NSC839698), were obtained from the NCI Developmental Therapeutics Program Chemical Repository. The FDA-approved anticancer drug set is available from the Developmental Therapeutics Program at https://dtp.cancer.gov/organization/dscb/obtaining/available plates.htm. […] The stock solutions were prepared in dimethyl sulfoxide (DMSO, Sigma-Aldrich, St. Louis, MO, cat. D2650) at 800-fold the tested concentration and stored at -70 degrees C prior to their use. All drugs and investigational agents were tested over a range starting from a high concentration at or near the clinical Cmax and decreasing in half-log increments. If the clinical Cmax for an agent had not been determined, the highest concentration tested was 10 microM.
The patient-derived cancer (PDC) cell lines include five colon adenocarcinomas: 186277-243-T-J2-PDC, 616215-338-R-J1-PDC, 439559-082-T-J2-PDC, 463943-066-T-J2-PDC, and 519858-162-T-J1-PDC; three pancreatic carcinomas: 323965-272-R-J2-PDC, 521955-158-R6-J3-PDC, and 521955-158-R2-J5-PDC; two uterine sarcomas: 327498-152-R-J2-PDC and 993429-296-R-J1-PDC; two rhabdomyosarcomas: 755483-174-R-J1-PDC and 772245-204-R-J1-PDC; two soft tissue sarcomas: 126254-015-R-J1-PDC and 494315-158-R-J1-PDC; two malignant fibrous histiocytomas: 317291-083-R-J1-PDC and 596521-263-R-J1-PDC; two breast carcinomas: 171881-019-R-J1-PDC and 885512-296-R-J2-PDC; and one ovarian carcinoma: 6556581-035-R-J-PDC were obtained from the NCI PDMR, (https://pdmr.cancer.gov). The established cell lines HSSY-2 synovial sarcoma (RRID:CVCL 8719), SYO-1 synovial sarcoma (RRID:CVCL_7146), MPNST malignant peripheral neural sheath tumor were obtained from the Sloan Kettering Institute. The following established cell lines were purchased from the American Type Culture Collection (ATCC, Manassas, VA), Sor the received from the NCI repository:, PANC-1 pancreatic carcinoma (CRL-1469, RRID:CVCL_0480), OVCAR-5 ovarian carcinoma (RRID:CVCL_1628), OVCAR-8 ovarian carcinoma (RRID:CVCL_1629), , MCF-7 breast carcinoma (CRL-12584, RRID:CVCL_0031), MDA-MB-231 breast carcinoma (CRL-12532, RRID:CVCL_0062), NCI-H1876 small cell lung carcinoma (CRL-5902, RRID:CVCL_1503), NCI-H510A small cell lung carcinoma (HTB-184, RRID:CVCL_1565), NCI-H1417 (CRL-5869, RRID:CVCL_1469), and NCI-H196 small cell lung carcinoma (CRL-5823, RRID:CVCL_1509). Dr. Peter Houghton (Greehey Children's Cancer Research Institute, University of Texas Health Science Center, San Antonio, TX) provided Rh-18 rhabdomyosarcoma (RRID:CVCL_1659). Pooled donor human umbilical vein endothelial cells (HUVEC, Lonza, cat. CC-2519) and human mesenchymal stem cells (hMSC, Lonza, cat. PT-2501) were purchased from Lonza (Walkersville, MD).
Cell Culture. […]

[1] = second compound 0.03 µM, first compound 0.0316 µM
[2] = second compound 0.03 µM, first compound 0.1 µM
[3] = second compound 0.03 µM, first compound 0.316 µM
[4] = second compound 0.03 µM, first compound 1 µM
[5] = second compound 0.03 µM, first compound 3.16 µM
[6] = second compound 0.03 µM, first compound 10 µM
[7] = second compound 0.0949 µM, first compound 0.0316 µM
[8] = second compound 0.0949 µM, first compound 0.1 µM
[9] = second compound 0.0949 µM, first compound 0.316 µM
[10] = second compound 0.0949 µM, first compound 1 µM
[11] = second compound 0.0949 µM, first compound 3.16 µM
[12] = second compound 0.0949 µM, first compound 10 µM
[13] = second compound 0.3 µM, first compound 0.0316 µM
[14] = second compound 0.3 µM, first compound 0.1 µM
[15] = second compound 0.3 µM, first compound 0.316 µM
[16] = second compound 0.3 µM, first compound 1 µM
[17] = second compound 0.3 µM, first compound 3.16 µM
[18] = second compound 0.3 µM, first compound 10 µM
[19] = second compound 0.949 µM, first compound 0.0316 µM
[20] = second compound 0.949 µM, first compound 0.1 µM
[21] = second compound 0.949 µM, first compound 0.316 µM
[22] = second compound 0.949 µM, first compound 1 µM
[23] = second compound 0.949 µM, first compound 3.16 µM
[24] = second compound 0.949 µM, first compound 10 µM
[25] = second compound 3 µM, first compound 0.0316 µM
[26] = second compound 3 µM, first compound 0.1 µM
[27] = second compound 3 µM, first compound 0.316 µM
[28] = second compound 3 µM, first compound 1 µM
[29] = second compound 3 µM, first compound 3.16 µM
[30] = second compound 3 µM, first compound 10 µM
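Also: spheroids exposed to compounds for seven days before readout.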

- pIC50 (second compound 0.03 µM): 5.06
- pIC50 (second compound 0.0949 µM): 5.03
- pIC50 (second compound 0.3 µM): 5.16
- pIC50 (second compound 0.949 µM): 5.05
- pIC50 (second compound 3 µM): 5.14
SMILES: C#Cc1c(F)ccc2cc(O)cc(-c3ncc4c(N5CC6CCC(C5)N6)nc(OCC56CCCN5CC(F)C6)nc4c3F)c12 (stereo not given) + CCN1C(C(=O)NC23CCC(C(=O)O)(CC2)CC3)C(c2cccc(Cl)c2F)C2(C(=O)Nc3cc(Cl)ccc32)C12CCCCC2
- viability, T/C [1]: 90.5%
- viability, T/C [2]: 96.1%
- viability, T/C [3]: 95.5%
- viability, T/C [4]: 120%
- viability, T/C [5]: 71.8%
- viability, T/C [6]: 47.2%
- viability, T/C [7]: 135%
- viability, T/C [8]: 110%
- viability, T/C [9]: 128%
- viability, T/C [10]: 121%
- viability, T/C [11]: 59.8%
- viability, T/C [12]: 49.4%
- viability, T/C [13]: 79.4%
- viability, T/C [14]: 88.4%
- viability, T/C [15]: 143%
- viability, T/C [16]: 89.1%
- viability, T/C [17]: 91.7%
- viability, T/C [18]: 30.5%
- viability, T/C [19]: 78.9%
- viability, T/C [20]: 79.5%
- viability, T/C [21]: 117%
- viability, T/C [22]: 118%
- viability, T/C [23]: 88.2%
- viability, T/C [24]: 45.7%
- viability, T/C [25]: 111%
- viability, T/C [26]: 106%
- viability, T/C [27]: 116%
- viability, T/C [28]: 114%
- viability, T/C [29]: 80.6%
- viability, T/C [30]: 37.8%

- pIC50 (second compound 0.01 µM): 7.67
- pIC50 (second compound 0.0316 µM): > 8.50
- pIC50 (second compound 0.1 µM): > 8.50
- pIC50 (second compound 0.316 µM): > 8.50
- pIC50 (second compound 1 µM): > 8.50
SMILES: COc1c(OCCCN2CCOCC2)ccc2c3n(c(=NC(=O)c4cnc(N)nc4)nc12)CCN3 + CNC(C)C(=O)NC1CN(S(=O)(=O)c2cccc(S(=O)(=O)N3CCC4CCC(C(=O)NC(c5ccccc5)c5ccccc5)N4C(=O)C(NC(=O)C(C)NC)C3)c2)CCC2CCC(C(=O)NC(c3ccccc3)c3ccccc3)N2C1=O
- viability, T/C (second compound 0.01 µM, first compound 0.00316 µM): 59.1%
- viability, T/C (second compound 0.01 µM, first compound 0.01 µM): 59.4%
- viability, T/C (second compound 0.01 µM, first compound 0.0316 µM): 45.7%
- viability, T/C (second compound 0.01 µM, first compound 0.1 µM): 20.4%
- viability, T/C (second compound 0.01 µM, first compound 0.316 µM): 8.95%
- viability, T/C (second compound 0.01 µM, first compound 1 µM): 3.6%
- viability, T/C (second compound 0.0316 µM, first compound 0.00316 µM): 41.9%
- viability, T/C (second compound 0.0316 µM, first compound 0.01 µM): 56.3%
- viability, T/C (second compound 0.0316 µM, first compound 0.0316 µM): 40.2%
- viability, T/C (second compound 0.0316 µM, first compound 0.1 µM): 19%
- viability, T/C (second compound 0.0316 µM, first compound 0.316 µM): 5.22%
- viability, T/C (second compound 0.0316 µM, first compound 1 µM): 3.87%
- viability, T/C (second compound 0.1 µM, first compound 0.00316 µM): 36%
- viability, T/C (second compound 0.1 µM, first compound 0.01 µM): 43.2%
- viability, T/C (second compound 0.1 µM, first compound 0.0316 µM): 35.6%
- viability, T/C (second compound 0.1 µM, first compound 0.1 µM): 11.6%
- viability, T/C (second compound 0.1 µM, first compound 0.316 µM): 6.95%
- viability, T/C (second compound 0.1 µM, first compound 1 µM): 3.25%
- viability, T/C (second compound 0.316 µM, first compound 0.00316 µM): 32%
- viability, T/C (second compound 0.316 µM, first compound 0.01 µM): 29.7%
- viability, T/C (second compound 0.316 µM, first compound 0.0316 µM): 51%
- viability, T/C (second compound 0.316 µM, first compound 0.1 µM): 13.7%
- viability, T/C (second compound 0.316 µM, first compound 0.316 µM): 6.6%
- viability, T/C (second compound 0.316 µM, first compound 1 µM): 1.75%
- viability, T/C (second compound 1 µM, first compound 0.00316 µM): 35.4%
- viability, T/C (second compound 1 µM, first compound 0.01 µM): 16.7%
- viability, T/C (second compound 1 µM, first compound 0.0316 µM): 24.5%
- viability, T/C (second compound 1 µM, first compound 0.1 µM): 27.5%
- viability, T/C (second compound 1 µM, first compound 0.316 µM): 22.7%
- viability, T/C (second compound 1 µM, first compound 1 µM): 1.36%

- pIC50 (second compound 0.03 µM): 5.77
- pIC50 (second compound 0.0949 µM): 5.59
- pIC50 (second compound 0.3 µM): 5.79
- pIC50 (second compound 0.949 µM): 5.80
- pIC50 (second compound 3 µM): 5.95
SMILES: O=C(c1cc(Cc2n[nH]c(=O)c3ccccc23)ccc1F)N1CCN(C(=O)C2CC2)CC1 + CCN1C(C(=O)NC23CCC(C(=O)O)(CC2)CC3)C(c2cccc(Cl)c2F)C2(C(=O)Nc3cc(Cl)ccc32)C12CCCCC2
- viability, T/C [1]: 58.3%
- viability, T/C [2]: 60.6%
- viability, T/C [3]: 68.3%
- viability, T/C [4]: 48.4%
- viability, T/C [5]: 46%
- viability, T/C [6]: 23.4%
- viability, T/C [7]: 79.4%
- viability, T/C [8]: 77%
- viability, T/C [9]: 72%
- viability, T/C [10]: 64.3%
- viability, T/C [11]: 46.5%
- viability, T/C [12]: 26.1%
- viability, T/C [13]: 80.3%
- viability, T/C [14]: 63%
- viability, T/C [15]: 55.8%
- viability, T/C [16]: 57.7%
- viability, T/C [17]: 52%
- viability, T/C [18]: 28.6%
- viability, T/C [19]: 86.2%
- viability, T/C [20]: 69.2%
- viability, T/C [21]: 66%
- viability, T/C [22]: 58.4%
- viability, T/C [23]: 44.2%
- viability, T/C [24]: 20.9%
- viability, T/C [25]: 71.3%
- viability, T/C [26]: 70.8%
- viability, T/C [27]: 50%
- viability, T/C [28]: 49.5%
- viability, T/C [29]: 51.4%
- viability, T/C [30]: 27.5%

Source: PubChem BioAssay AID1963434 (Molecular Pharmacology Branch, DTP, NCI, 2024)
